Test results reported in US5624959A, “Naphthyloxyacetic acid” (Ono Pharmaceutical Co., Ltd., priority 1993, dated 1997).

Biological target: T1, prostanoide receptor subtype (mouse EP3a) (Mus musculus, UniProt P30557)
T1 construct: expressed in transfected cells
T1 sequence (P30557 1-365): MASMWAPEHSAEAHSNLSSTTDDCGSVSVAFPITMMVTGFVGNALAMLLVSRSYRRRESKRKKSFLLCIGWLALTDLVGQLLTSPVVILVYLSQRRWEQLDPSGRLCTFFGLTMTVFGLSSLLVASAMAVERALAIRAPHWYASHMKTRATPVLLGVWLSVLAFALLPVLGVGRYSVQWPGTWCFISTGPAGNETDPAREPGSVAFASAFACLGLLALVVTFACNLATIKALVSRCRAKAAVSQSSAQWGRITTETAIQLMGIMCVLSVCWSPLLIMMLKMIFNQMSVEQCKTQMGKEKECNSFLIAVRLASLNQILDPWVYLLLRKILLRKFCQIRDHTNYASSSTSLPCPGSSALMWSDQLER
Assay: Binding assay using expression cell of prostanoide receptor subtype ([3H]PGE2 competition, membrane fraction)
Details: mouse EP3a membrane fraction (0.5 mg/ml); [3H]-PGE2 2.5 nM; pH 6.0; 1 hour at room temperature; Ki=IC50/(1+([c]/Kd)); read-out: Ki (dissociation constant)
Description: (i) Binding assay using expression cell of prostanoide receptor subtype
The preparation of membrane fraction was carried out according to the method of Sugimoto et al [J. Biol. Chem. 267, 6463-6466(1992)], using prostanoide receptor subtype (mouse EP3a).
The standard assay mixture containing a membrane fraction (0.5 mg/ml), [^3 H]PGE2 in a final volume of […] was incubated for 1 hour at room temperature. The reaction was terminated by the addition of 3 ml of ice-cooled buffer. The mixture was rapidly filtered through a Whatman GF/B glass filter. The radioactivity associated with the filter was measured in ACS II (Amarsham) by liquid scintillation counting.
Kd and Bmax values were determined from Scatchard plots [Ann. N.Y. Acad. Sci., 51,660(1949)]. Non-specific binding was calculated as the bond in the presence of an excess (2.5 mM) of unlabeled PGE2. In the experiment for competition of specific [^3 H]-PGE2 binding by the compounds of the present invention, [^3 H]-PGE2 was added at a concentration of 2.5 nM and the compounds of the present invention were at a concentration of 1 mM.
The following buffer was used in all reactions. Buffer: 10 mM potassium phosphate (pH 6.0), 1 mM EDTA, 10 mM MgCl2, 0.1 M NaCl
The dissociation constant (Ki) of each compound was calculated by the following equation.

Ki | Structure (SMILES)
37 nM | O=C(O)COc1cccc2cc(CCNS(=O)(=O)/C=C/c3ccccc3)ccc12 [Example 3(h), 6-[2-[(2-phenylvinyl)sulfonylamino]ethyl]naphthyloxyacetic acid]
28 nM | O=C(O)COc1cccc2c(CCNS(=O)(=O)CCc3ccccc3)cccc12 [Example 3(w), 5-[2-[(2-phenylethyl)sulfonylamino]ethyl]naphthyloxyacetic acid]
2.5 nM | O=C(O)COc1cccc2c3c(ccc12)CCC(NS(=O)(=O)/C=C/c1ccccc1)C3 (stereo not shown) [Example 3(ff), 6-[(2-phenylvinyl)sulfonylamino]-5,6,7,8-tetrahydrophenanthrene-1-yl-oxyacetic acid]
36 nM | O=C(O)COc1cccc2c1CCCC2NS(=O)(=O)C=C(c1ccccc1)c1ccccc1 (stereo not shown) [Example 3(p), 5-[(2,2-diphenylvinyl)sulfonylamino]-5,6,7,8-tetrahydronaphthyloxyacetic acid]
7.5 nM | O=C(O)COc1cccc2c(CCS(=O)(=O)NCC(c3ccccc3)c3ccccc3)cccc12 [Example 6(f)]
7.9 nM | O=C(O)COc1cccc2c1CCC=C2CCNS(=O)(=O)/C=C/c1ccccc1 [Example 3(aa), 5-[2-[(2-phenylvinyl)sulfonylamino]ethyl]-7,8-dihydronaphthyloxyacetic acid]
7 nM | O=C(O)COc1cccc2c(CCNS(=O)(=O)/C=C/c3ccccc3)cccc12 [Example 3(g)]
37 nM | O=C(O)COc1cccc2c(NS(=O)(=O)C=C(c3ccccc3)c3ccccc3)cccc12 [Example 3(i), 5-[(2,2-diphenylvinyl)sulfonylamino]naphthyloxyacetic acid]
320 nM | O=C(O)COc1cccc2c1CCCC2NS(=O)(=O)c1ccc2ccccc2c1 (stereo not shown) [Example 3(q), 5-(naphth-2-yl-sulfonylamino)-5,6,7,8-tetrahydronaphthyloxyacetic acid]
17 nM | O=C(O)COc1cccc2c(NS(=O)(=O)CCc3ccccc3)cccc12 [Example 3(v), 5-[(2-phenylethyl)sulfonylamino]naphthyloxyacetic acid]
